This experiment has as its system mice. The experiment in a line: Neuropharmacological Assay (SmartCube): automated behavioral signature of compound-treated mice compared with a database of reference drug classes. Type of experiment: in vivo. The settings on record: for minimal effective dose: Mus musculus, ip, read-out: MED; for AD / AG / AN / AP / AX / CE / HL / MS / PS / SH / UK: 3.0 mg/kg i.p., 15 min before test; for MED (minimal effective dose): dose having 45% or more total activity in SmartCube, if only one dose was tested. From the text:
Neurosci. 2011 Sep. 9; 5: 103 (doi: 10.3389/fnins.2011.00103) (“Roberds”). As reported in Roberds, because psychiatric diseases generally result from disorders of cell-cell communication or circuitry, intact systems are useful in detecting improvement in disease-relevant endpoints. These endpoints are typically behavioral in nature, often requiring human observation and interpretation. To facilitate testing of multiple compounds for behavioral effects relevant to psychiatric disease, PsychoGenics, Inc. (Tarrytown, NY, “PGI”) developed SmartCube™ an automated system in which behaviors of compound-treated mice are captured by digital video and analyzed with computer algorithms. (D. Brunner et al. Drug Discov. Today 2002, 7:S107-S112). PGI Analytical Systems uses data from SmartCube™ to compare the behavioral signature of a test compound to a database of behavioral signatures obtained using a large set of diverse reference compounds. (The composition of the database as well as validation of the method is further described in Roberds). In this way, the neuropharmacological effects of a test compound can be predicted by similarity to major classes of compounds, such as antipsychotics, anxiolytics and antidepressants.
The SmartCube™ system produces an activity signature indicating the probability that the activity of the test compound at the administered dose matches a given class of neuropharmacological agents. (See, e.g., Roberds, FIGS. 2 and 3). The test compound is simultaneously compared against multiple classes of agents; thus, a separate probability is generated for each behavioral effect measured (e.g., anxiolytic activity, analgesic activity, etc.). In table 2 below, these probabilities are reported for each behavioral effect measured as described in Table 1 below.
Provided compounds were dissolved in a mixture of Pharmasolve™ (N-methyl-2-pyrrolidone), polyethylene glycol and propylene glycol, and were injected i.p. 15 min. before the behavioral test. For each compound, injections were administered at 3 different doses. For each behavioral effect measured, results for the 3.0 mg/kg dose are presented. The potency of many of the compounds in the table was also determined in the SmartCube™ system. Test compounds were routinely examined at dose levels of 0.3, 1, 3 and 10 mg per kg (mpk), although the dose range was increased or decreased, if necessary, to obtain a full dose response curve. A compound's minimal effective dose (MED) is a measure of the compound's potency. The MED was defined as the dose (in mpk) having 45% or more total activity in SmartCube. If only one dose was tested, that dose is shown in the MED column of Table 2 even though the dose is not known to be the MED.

The mark [1] stands for this setting: minimal effective dose: dose having 45% or more total activity in SmartCube, i.p., if only one dose tested, that dose is shown.
[2] abbreviates: i.p., that dose is shown, hydrochloride.
The mark [3] stands for this setting: probability that activity matches this class of agents.
[4] abbreviates: probability that activity matches this class of agents, hydrochloride, 3 mg/kg.
Where [5] appears, read: SmartCube class probability, hydrochloride, 3 mg/kg.

Each structure is given as a SMILES string. Counter-ions that a name gives are not always drawn.

In the case of `CNC1CCc2sc(C(F)(F)F)cc2C1` (stereo not drawn) [Compound 173, N-methyl-2-(trifluoromethyl)-4,5,6,7-tetrahydrobenzothiophen-5-amine hydrochloride], the minimal effective dose under setting [1] was over 3 mg/kg. For the same compound, for the setting “SmartCube class probability”, the AD entry is on record as “ND (^ <4%)”, the AG result is reported as “ND (^ <4%)”, the AN result was “ND (^ <4%)” and the AP result is “ND (^ <4%)”. In addition, where the note is “SmartCube class probability”, the AX entry is on record as “ND (^ <4%)”, the CE result is listed as “ND (^ <4%)”, the HL entry is reported as “ND (^ <4%)” and the MS entry is “ND (^ <4%)”. Where the note is “SmartCube class probability”, the PS result is given as “ND (^ <4%)”, the SH entry was “ND (^ <4%)” and the UK result is given as “++ (≥24%)”.

As to `Cc1csc2c1CCC(N)C2` (single isomer, unassigned) [Compound 65, 3-methyl-4,5,6,7-tetrahydrobenzothiophen-6-amine hydrochloride], under setting [2], the “MED (minimal effective dose)” value is reported as 3 mpk. Also, under setting [3], the AG entry was “ND (^ <4%)”, the AN result is listed as “ND (^ <4%)”, the AX result is on record as “ND (^ <4%)” and the CE result is given as “ND (^ <4%)”. Also, under setting [3], the MS entry is listed as “ND (^ <4%)”, the SH result is on record as “ND (^ <4%)” and the UK entry is reported as “ND (^ <4%)”. Under setting [4], the AD result is “+++ (≥49%)”, the AP entry is given as “ND (^ <4%)”, the HL result is recorded as “+ (≥4%)” and the PS result is reported as “+ (≥4%)”.

In the case of `c1scc2c1CCC(NC1CCC1)C2` (single isomer, unassigned) [Compound 160, N-cyclobutyl-4,5,6,7-tetrahydro-2-benzothiophen-5-amine hydrochloride], under setting [1], the minimal effective dose is over 3 mg/kg. Further, under “SmartCube class probability”, the AD result is “ND (^ <4%)”, the AG entry was “ND (^ <4%)”, the AN entry is “ND (^ <4%)” and the AP result is recorded as “ND (^ <4%)”. For the same compound, where the note is “SmartCube class probability”, the AX result is given as “ND (^ <4%)”, the CE result is “ND (^ <4%)”, the HL result is listed as “ND (^ <4%)” and the MS result was “ND (^ <4%)”. For the setting “SmartCube class probability”, the PS result is reported as “ND (^ <4%)” and the SH entry was “ND (^ <4%)”. Under setting [5], the UK entry is “+ (≥4%)”.

Consider `CNC1COc2ccsc2C1` (single isomer, unassigned) [Compound 46, N-methyl-6,7-dihydro-5H-thieno[3,2-b]pyran-6-amine hydrochloride], for which the “MED (minimal effective dose)” value under setting [2] came to 10 mpk. Under setting [3], the AG result is listed as “ND (^ <4%)”, the AN entry is recorded as “ND (^ <4%)”, the AP result is listed as “ND (^ <4%)” and the CE result is given as “ND (^ <4%)”. Under setting [3], the HL entry is recorded as “ND (^ <4%)”, the MS result was “ND (^ <4%)”, the PS entry is on record as “ND (^ <4%)” and the SH result is recorded as “ND (^ <4%)”. Moreover, under setting [4], the AD entry is “ND (^ <4%)”, the AX result is reported as “+ (≥4%)” and the UK entry is “++ (≥24%)”.

In the case of `CNC1CCc2sc(Cl)cc2C1` (single isomer, unassigned) [Compound 151, 2-chloro-N-methyl-4,5,6,7-tetrahydrobenzothiophen-5-amine hydrochloride], the minimal effective dose under setting [1] came out at 3 mg/kg. For the same compound, for the setting “SmartCube class probability”, the AD entry is “ND (^ <4%)”, the AG entry is “ND (^ <4%)”, the AN result was “ND (^ <4%)” and the AP entry is “ND (^ <4%)”. Further, under “SmartCube class probability”, the AX result is recorded as “ND (^ <4%)”, the CE result is “ND (^ <4%)”, the HL entry was “ND (^ <4%)” and the MS result is “ND (^ <4%)”. Also, where the note is “SmartCube class probability”, the PS result is on record as “ND (^ <4%)” and the SH entry is listed as “ND (^ <4%)”. Further, the UK entry under setting [5] is on record as “+++ (≥49%)”.

`c1scc2c1CCC(NC1CCC1)C2` (single isomer, unassigned) [Compound 161, N-cyclobutyl-4,5,6,7-tetrahydro-2-benzothiophen-5-amine hydrochloride]: where the note is “SmartCube class probability”, the AD result is “ND (^ <4%)”, the AG result is listed as “ND (^ <4%)”, the AN entry is on record as “ND (^ <4%)” and the AP entry is recorded as “ND (^ <4%)”. For the setting “SmartCube class probability”, the AX result is on record as “ND (^ <4%)”, the CE entry was “ND (^ <4%)”, the HL result is recorded as “ND (^ <4%)” and the MS entry is reported as “ND (^ <4%)”. Besides, where the note is “SmartCube class probability”, the PS entry was “ND (^ <4%)” and the SH entry is “ND (^ <4%)”. In addition, the UK entry under setting [5] was “ND (^ <4%)”. Besides, the MED under setting [1] is over 3 mpk.

For `CNC1(C)CCc2ccsc2C1` (single isomer, unassigned) [Compound 49, N, 6-dimethyl-5,7-dihydro-4H-benzothiophen-6-amine hydrochloride], the “MED (minimal effective dose)” value under setting [2] came to 1.0 mpk. Under setting [3], the AG entry is “ND (^ <4%)”, the AN result is listed as “ND (^ <4%)”, the AP result is “ND (^ <4%)” and the HL entry was “ND (^ <4%)”. Under setting [3], the PS result was “ND (^ <4%)”, the SH entry is “ND (^ <4%)” and the UK entry was “ND (^ <4%)”. In addition, under setting [4], the AD result was “++ (≥24%)”, the AX result was “++ (≥24%)”, the CE entry is “+ (≥4%)” and the MS result is on record as “+ (≥4%)”.

For `CNC1COc2c(F)csc2C1` (stereo not drawn) [Compound 225, 3-fluoro-N-methyl-6,7-dihydro-5H-thieno[3,2-b]pyran-6-amine hydrochloride], the minimal effective dose under setting [1] was under 3 mg/kg. Under “SmartCube class probability”, the AD result is “ND (^ <4%)”, the AG entry was “ND (^ <4%)”, the AN entry was “ND (^ <4%)” and the AP entry is reported as “++++ (≥74%)”. Moreover, under “SmartCube class probability”, the AX result is on record as “ND (^ <4%)”, the CE entry is on record as “ND (^ <4%)”, the HL entry is “ND (^ <4%)” and the MS result is “ND (^ <4%)”. Further, where the note is “SmartCube class probability”, the PS result is on record as “ND (^ <4%)”, the SH entry is recorded as “ND (^ <4%)” and the UK result was “ND (^ <4%)”.

For `CNC1(C)CCc2cscc2C1` (single isomer, unassigned; enantiomer 1) [Compound 101, N, 5-dimethyl-6,7-dihydro-4H-2-benzothiophen-5-amine hydrochloride enantiomer 1], the “MED (minimal effective dose)” value (i.p., that dose is shown) is reported as 3 mpk. Under setting [3], the AD entry is “++++ (≥74%)”, the AG result is “ND (^ <4%)”, the AN result was “ND (^ <4%)” and the AP entry is listed as “ND (^ <4%)”. Moreover, under setting [3], the AX result is given as “ND (^ <4%)”, the CE result is “ND (^ <4%)”, the HL result is given as “ND (^ <4%)” and the MS result is on record as “ND (^ <4%)”. Also, under setting [3], the SH result is “ND (^ <4%)” and the UK entry is given as “ND (^ <4%)”. For the setting “probability that activity matches this class of agents, 3 mg/kg”, the PS entry is “ND (^ <4%)”.

In the case of `Cc1sc2c(c1C)CCC(N)C2` (single isomer, unassigned) [Compound 68, 2,3-dimethyl-4,5,6,7-tetrahydrobenzothiophen-6-amine hydrochloride], the “MED (minimal effective dose)” value (i.p., that dose is shown) amounted to 3 mpk. Moreover, under setting [3], the AG entry is recorded as “ND (^ <4%)”, the AN result was “ND (^ <4%)”, the AP entry was “ND (^ <4%)” and the AX entry is reported as “ND (^ <4%)”. Besides, under setting [3], the CE entry was “ND (^ <4%)”, the MS entry was “ND (^ <4%)”, the PS result is given as “ND (^ <4%)” and the SH entry is reported as “ND (^ <4%)”. The UK result under setting [3] was “ND (^ <4%)”. Also, under setting [4], the AD entry is given as “++ (≥24%)” and the HL result is listed as “+ (≥4%)”.

Source of the values: US20260274814A1, “THIENYL COMPOUNDS FOR THE TREATMENT OF A CENTRAL NERVOUS SYSTEM DISEASE OR DISORDER” (Coreterra Therapeutics, Inc., priority 2023, published 2026).
